According to the supplement of paper PMC10307832:

Experiments:
Vemurafenib + Dasatinib = compound: CCCS(=O)(=O)Nc1ccc(F)c(C(=O)c2c[nH]c3ncc(-c4ccc(Cl)cc4)cc23)c1F [Vemurafenib] + Cc1nc(Nc2ncc(C(=O)Nc3c(C)cccc3Cl)s2)cc(N2CCN(CCO)CC2)n1 [Dasatinib] (partner 0.075 µM); test: relative viability (nuclei count vs DMSO), 5 days (fraction); higher = more cells survive
Outline: (§1)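 Cells from lung cancer lines were seeded into 1536-well plates and, one day later, dosed by pin tool. Treatments were either a single drug or a fixed dose of an anchor drug with five library-drug doses (not always all listed) in √10 steps. After 5 days, nuclei were stained in a one-step fixation (final 0.05% Triton X-100, 1% formaldehyde, 1 ug/ml Hoechst) and counted on 4× images, and relative viability is the treated-to-vehicle nuclei ratio, as the median of duplicate plates.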

OSI-027 + Palbociclib = compound: COc1cccc2cc(-c3nc([C@H]4CC[C@H](C(=O)O)CC4)n4ncnc(N)c34)[nH]c12 [OSI-027] + CC(=O)c1c(C)c2cnc(Nc3ccc(N4CCNCC4)cn3)nc2n(C2CCCC2)c1=O [Palbociclib] (partner 0.5 µM); test: as above
Outline: as §1

Row | Cell Line | relative viability (Vemurafenib + Dasatinib; first compound 0.03162 µM) | relative viability (Vemurafenib + Dasatinib; first compound 0.1 µM) | relative viability (Vemurafenib + Dasatinib; first compound 0.3162 µM) | relative viability (Vemurafenib + Dasatinib; first compound 1 µM) | relative viability (OSI-027 + Palbociclib; first compound 0.01 µM) | relative viability (OSI-027 + Palbociclib; first compound 0.03162 µM) | relative viability (OSI-027 + Palbociclib; first compound 0.1 µM) | relative viability (OSI-027 + Palbociclib; first compound 0.3162 µM) | relative viability (OSI-027 + Palbociclib; first compound 1 µM)
1 | NCI-H2023 | 0.507 | 0.506 | 0.444 | 0.489 | 0.36 | 0.326 | 0.249 | 0.22 | 0.161
2 | NCI-H2085 | 0.244 | 0.273 | 0.515 | 0.256 | 0.463 | 0.515 | 0.458 | 0.428 | 0.446
3 | NCI-H2087 | 0.751 | 0.789 |  | 0.897 | 0.261 | 0.169 | 0.207 | 0.195 | 0.142
4 | NCI-H2126 | 0.562 | 0.584 |  | 0.537 | 0.362 | 0.361 | 0.36 | 0.34 | 0.347
5 | NCI-H2170 | 0.523 | 0.214 | 0.639 | 0.54 | 0.407 | 0.382 | 0.329 | 0.302 | 0.201
6 | NCI-H2228 | 0.399 | 0.474 | 0.54 | 0.502 | 0.65 | 0.638 | 0.849 | 0.75 | 0.383
7 | NCI-H2342 | 0.313 | 0.304 | 0.266 | 0.326 | 0.51 | 0.503 | 0.492 | 0.443 | 0.48
8 | NCI-H2347 | 0.346 | 0.311 | 0.692 | 0.346 | 0.41 | 0.386 | 0.392 | 0.358 | 0.392
9 | NCI-H2405 | 0.213 | 0.231 |  | 0.231 | 0.509 | 0.491 | 0.472 | 0.401 | 0.34
10 | NCI-H3122 | 0.652 | 0.598 | 0.841 | 0.712 | 0.167 | 0.177 | 0.175 | 0.168 | 0.152
11 | PC-3 [JPC-3] | 0.921 |  | 0.9 | 1.08 | 0.535 | 0.522 | 0.563 | 0.5 | 0.439
12 | PC-14 | 0.229 |  | 0.228 | 0.267 | 0.512 | 0.509 | 0.545 | 0.576 | 0.408
13 | RERF-LC-KJ | 0.768 | 0.768 | 0.586 | 0.786 | 1.07 | 0.957 | 0.99 | 0.817 | 0.457
14 | SK-LU-1 | 0.16 | 0.17 | 0.159 | 0.185 | 0.373 | 0.381 | 0.394 | 0.302 | 0.268
15 | SK-MES-1 | 0.372 | 0.155 | 0.303 | 0.389 | 0.294 | 0.322 | 0.286 | 0.275 | 0.274
16 | SW 900 | 0.827 | 0.61 | 0.538 | 0.505 | 0.531 | 0.579 | 0.577 | 0.375 | 0.288
17 | SW 1573 | 0.567 | 0.428 | 0.36 | 0.347 | 0.388 | 0.389 | 0.356 | 0.333 | 0.216
